Results published in ChEMBL document CHEMBL1909046, “DrugMatrix in vitro pharmacology data”.
*1 amine or outer side, *2 acyl side, *3 side chain or, on linkers, in order; H or OH if unused. Where a SMILES comes first, the peptide text is derived from it. Bridges are numbered along the chain shown (N, C = ends). Roman numbers before positions name the chains, in order. [ ]: non-standard residue; d: D form. Actinocin(1to9) = Cc1c2oc3c(C)ccc(C(=O)[*:2])c3nc-2c(C(=O)[*:1])c(N)c1=O; NMeV = CN[C@H](C(=O)O)C(C)C; Sar = CNCC(=O)O

Legend:
[1] = target: Sodium-dependent noradrenaline transporter (Homo sapiens, UniProt P23975); experiment: DRUGMATRIX: Norepinephrine Transporter radioligand binding (ligand: [125I] RTI-55); type: cell membranes, MDCK, Membrane; settings: Not Active = under 50% inhibition at 10 µM; for Ki: read-out: Ki
[2] = target: Tyrosine-protein kinase Lck (Homo sapiens, UniProt P06239); experiment: DRUGMATRIX: Protein Tyrosine Kinase, LCK enzyme inhibition (substrate: Poly(Glu:Tyr)); type: cell-based, Insect cells; settings: insect cells; Not Active = under 50% inhibition at 10 µM
[3] = target: T1, Thromboxane-A synthase (Homo sapiens, UniProt P24557); experiment: biochemical; type: tissue-based, Platelet; settings: platelet;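 also: enzyme inhibition assay with PGH2 supplied as substrate; in other assays of this panel Not Active means under 50% inhibition at 10 µM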
T1 sequence (P24557 whole entry): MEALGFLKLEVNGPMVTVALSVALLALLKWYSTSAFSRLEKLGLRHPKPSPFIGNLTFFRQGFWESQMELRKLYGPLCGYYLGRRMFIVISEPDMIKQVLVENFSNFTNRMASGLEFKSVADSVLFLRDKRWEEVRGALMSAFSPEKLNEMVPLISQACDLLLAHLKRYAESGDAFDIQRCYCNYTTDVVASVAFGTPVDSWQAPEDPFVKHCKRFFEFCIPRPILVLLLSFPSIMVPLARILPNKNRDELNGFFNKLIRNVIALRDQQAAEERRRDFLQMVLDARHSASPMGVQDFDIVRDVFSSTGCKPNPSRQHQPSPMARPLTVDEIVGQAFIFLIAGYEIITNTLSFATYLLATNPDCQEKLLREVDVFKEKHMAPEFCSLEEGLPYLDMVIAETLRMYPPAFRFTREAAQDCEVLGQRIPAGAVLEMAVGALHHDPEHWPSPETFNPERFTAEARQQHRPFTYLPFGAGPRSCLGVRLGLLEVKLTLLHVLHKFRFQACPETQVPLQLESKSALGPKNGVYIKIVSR

[4] = target: T2, Nitric oxide synthase, inducible (Mus musculus, UniProt P29477); set-up: species or system Escherichia coli;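 also: inhibition of iNOS enzyme activity measured with L-arginine as substrate; in other assays of this panel Not Active means under 50% inhibition at 10 µM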
T2 sequence (P29477 whole entry): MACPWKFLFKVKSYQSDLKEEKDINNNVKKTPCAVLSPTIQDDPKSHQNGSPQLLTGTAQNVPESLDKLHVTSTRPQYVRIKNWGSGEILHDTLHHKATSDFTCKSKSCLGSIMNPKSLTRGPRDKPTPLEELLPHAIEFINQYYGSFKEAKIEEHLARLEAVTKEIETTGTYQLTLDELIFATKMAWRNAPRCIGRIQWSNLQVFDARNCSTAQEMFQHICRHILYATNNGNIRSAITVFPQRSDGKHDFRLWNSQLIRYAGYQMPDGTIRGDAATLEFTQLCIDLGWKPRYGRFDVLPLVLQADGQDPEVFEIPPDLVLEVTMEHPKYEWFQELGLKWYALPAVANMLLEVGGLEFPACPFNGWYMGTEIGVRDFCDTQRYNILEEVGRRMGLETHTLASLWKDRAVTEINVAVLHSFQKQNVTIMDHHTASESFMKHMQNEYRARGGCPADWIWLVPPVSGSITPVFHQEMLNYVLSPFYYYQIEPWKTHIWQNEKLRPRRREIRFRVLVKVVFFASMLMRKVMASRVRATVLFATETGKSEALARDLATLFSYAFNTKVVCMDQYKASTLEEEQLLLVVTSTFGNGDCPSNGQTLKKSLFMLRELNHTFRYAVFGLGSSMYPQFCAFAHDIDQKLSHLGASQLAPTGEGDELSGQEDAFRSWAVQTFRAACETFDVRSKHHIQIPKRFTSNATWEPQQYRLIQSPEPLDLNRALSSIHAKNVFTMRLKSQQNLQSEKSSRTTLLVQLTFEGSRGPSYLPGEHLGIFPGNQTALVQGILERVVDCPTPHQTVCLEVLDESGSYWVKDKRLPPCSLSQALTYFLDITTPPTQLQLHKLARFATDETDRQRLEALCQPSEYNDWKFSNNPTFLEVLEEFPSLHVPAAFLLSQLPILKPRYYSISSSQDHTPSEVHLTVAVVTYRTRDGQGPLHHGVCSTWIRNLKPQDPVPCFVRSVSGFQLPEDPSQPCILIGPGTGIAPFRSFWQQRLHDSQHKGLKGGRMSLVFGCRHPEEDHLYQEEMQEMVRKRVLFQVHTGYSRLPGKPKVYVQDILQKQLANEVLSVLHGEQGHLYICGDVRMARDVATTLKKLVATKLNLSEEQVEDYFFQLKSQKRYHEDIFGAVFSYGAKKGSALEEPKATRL

[5] = target: 5-hydroxytryptamine receptor 2B (Homo sapiens, UniProt P41595); type: cell membranes, CHO-K1, Membrane; settings: cho-k1; also: in other assays of this panel Not Active means under 50% inhibition at 10 µM
[6] = DRUGMATRIX: beta-Lactamase enzyme inhibition (substrate: Nitrocefin); set-up: species or system Bacillus cereus; settings: Not Active = under 50% inhibition at 10 µM

Chain of Sodium-dependent noradrenaline transporter (P23975 whole entry): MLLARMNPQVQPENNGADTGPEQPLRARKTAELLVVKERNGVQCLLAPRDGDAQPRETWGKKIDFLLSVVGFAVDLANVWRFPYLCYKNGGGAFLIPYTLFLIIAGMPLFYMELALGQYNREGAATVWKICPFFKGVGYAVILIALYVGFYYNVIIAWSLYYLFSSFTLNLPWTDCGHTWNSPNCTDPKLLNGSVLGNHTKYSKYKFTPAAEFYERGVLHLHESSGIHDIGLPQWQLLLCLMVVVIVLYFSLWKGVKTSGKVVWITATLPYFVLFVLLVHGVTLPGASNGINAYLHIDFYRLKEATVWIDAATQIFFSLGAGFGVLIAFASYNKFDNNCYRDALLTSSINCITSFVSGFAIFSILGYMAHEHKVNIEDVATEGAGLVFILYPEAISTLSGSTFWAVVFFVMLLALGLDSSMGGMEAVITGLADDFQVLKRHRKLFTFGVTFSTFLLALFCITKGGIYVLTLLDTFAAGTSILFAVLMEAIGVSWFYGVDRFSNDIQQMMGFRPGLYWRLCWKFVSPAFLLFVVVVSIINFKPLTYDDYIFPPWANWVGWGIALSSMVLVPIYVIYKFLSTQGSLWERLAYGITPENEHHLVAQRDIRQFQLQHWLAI
Chain of 5-hydroxytryptamine receptor 2B (P41595 whole entry): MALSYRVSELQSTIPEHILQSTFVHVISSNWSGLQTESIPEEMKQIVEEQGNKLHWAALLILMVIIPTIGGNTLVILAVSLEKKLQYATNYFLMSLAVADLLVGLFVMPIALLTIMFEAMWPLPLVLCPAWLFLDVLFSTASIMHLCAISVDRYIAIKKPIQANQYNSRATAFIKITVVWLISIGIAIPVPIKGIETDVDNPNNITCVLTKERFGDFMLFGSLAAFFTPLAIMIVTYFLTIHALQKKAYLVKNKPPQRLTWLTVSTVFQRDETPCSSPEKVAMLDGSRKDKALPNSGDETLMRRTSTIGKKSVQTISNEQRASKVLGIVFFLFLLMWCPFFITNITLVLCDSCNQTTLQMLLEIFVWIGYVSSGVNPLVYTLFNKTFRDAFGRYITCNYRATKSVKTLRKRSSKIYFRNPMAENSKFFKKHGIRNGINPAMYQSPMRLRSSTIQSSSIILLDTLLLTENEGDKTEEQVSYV
Chain of Tyrosine-protein kinase Lck (P06239 whole entry): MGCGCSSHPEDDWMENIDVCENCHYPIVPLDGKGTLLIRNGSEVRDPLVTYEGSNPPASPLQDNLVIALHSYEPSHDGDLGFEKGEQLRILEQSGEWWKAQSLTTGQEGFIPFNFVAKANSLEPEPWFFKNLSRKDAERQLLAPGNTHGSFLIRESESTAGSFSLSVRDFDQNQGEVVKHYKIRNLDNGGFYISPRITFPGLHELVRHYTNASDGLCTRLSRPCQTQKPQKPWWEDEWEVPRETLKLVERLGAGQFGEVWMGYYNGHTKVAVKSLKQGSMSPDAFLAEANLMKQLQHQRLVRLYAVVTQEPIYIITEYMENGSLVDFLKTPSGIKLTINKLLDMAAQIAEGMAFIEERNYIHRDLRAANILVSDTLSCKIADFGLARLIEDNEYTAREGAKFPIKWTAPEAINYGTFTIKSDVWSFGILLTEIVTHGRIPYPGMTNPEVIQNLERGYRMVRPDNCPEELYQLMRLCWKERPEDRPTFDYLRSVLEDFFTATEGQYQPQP

Compound	IC50 ([1]; read-out: IC50)	Ki [1]	IC50 [2]	IC50 [3]	IC50 [4]	IC50 [5]	IC50 [6]	Ki [6]	IC50 ([1]; mdck)
Cc1ccc(-c2cc(C(F)(F)F)nn2-c2ccc(S(N)(=O)=O)cc2)cc1 [CELECOXIB]	7.31 µM	7.25 µM	Not Active	Not Active	Not Active	Not Active	Not Active	Not Active	
CCC1(c2ccc(N)cc2)CCC(=O)NC1=O (stereo not given) [AMINOGLUTETHIMIDE]			Not Active	Not Active	Not Active	Not Active	Not Active	Not Active	Not Active
Cc1ccc(/N=C/N(C)/C=N/c2ccc(C)cc2C)c(C)c1 [AMITRAZ]			Not Active	Not Active	Not Active	Not Active	Not Active	Not Active	Not Active
C[C@H](CS)C(=O)N1CCC[C@H]1C(=O)O [CAPTOPRIL]			Not Active	Not Active	Not Active	Not Active	Not Active	Not Active	Not Active
Clc1cccc(Cl)c1NC1=NCCN1 [CLONIDINE]			Not Active	Not Active	Not Active	Not Active	Not Active	Not Active	Not Active
CCCCN1CCCC[C@H]1C(=O)Nc1c(C)cccc1C [LEVOBUPIVACAINE]			Not Active	Not Active	Not Active	Not Active	Not Active	Not Active	Not Active
OC(Cn1cncn1)(Cn1cncn1)c1ccc(F)cc1F [FLUCONAZOLE]			Not Active	Not Active	Not Active	Not Active	Not Active	Not Active	Not Active
CCCC1O[C@@H]2C[C@H]3[C@@H]4CCC5=CC(=O)C=C[C@]5(C)[C@H]4[C@@H](O)C[C@]3(C)[C@]2(C(=O)CO)O1 (stereo not given in full) [BUDESONIDE]			Not Active	Not Active	Not Active	Not Active	Not Active	Not Active	Not Active
Cc1cc(C2CCCCC2)n(O)c(=O)c1 [CICLOPIROX]			Not Active	Not Active	Not Active	Not Active	Not Active	Not Active	Not Active
Cc1c(C)c2c(c(C)c1O)CC[C@@](C)(CCC[C@H](C)CCC[C@H](C)CCCC(C)C)O2 [ALPHA-TOCOPHEROL]			Not Active	Not Active	Not Active	Not Active	Not Active	Not Active	Not Active
Cc1c2oc3c(C)ccc(C(=O)N[C@@H]4C(=O)N[C@H](C(C)C)C(=O)N5CCC[C@H]5C(=O)N(C)CC(=O)N(C)[C@@H](C(C)C)C(=O)O[C@@H]4C)c3nc-2c(C(=O)N[C@@H]2C(=O)N[C@H](C(C)C)C(=O)N3CCC[C@H]3C(=O)N(C)CC(=O)N(C)[C@@H](C(C)C)C(=O)O[C@@H]2C)c(N)c1=O [DACTINOMYCIN] (I: T[dV]P[Sar][NMeV] / II: T[dV]P[Sar][NMeV]; ester I:1-I:C, II:1-II:C; linker I:N-II:N via Actinocin(1to9))			Not Active	Not Active	Not Active	Not Active	Not Active	Not Active	Not Active
CC1(C)S[C@@H]2[C@H](NC(=O)Cc3ccccc3)C(=O)N2[C@H]1C(=O)O [PENICILLIN G]			Not Active	Not Active	Not Active	Not Active	Not Active	Not Active	Not Active
C[C@H](CCC(=O)O)[C@H]1CC[C@H]2[C@@H]3[C@H](O)C[C@@H]4C[C@H](O)CC[C@]4(C)[C@H]3C[C@H](O)[C@]12C [CHOLIC ACID]			Not Active	Not Active	Not Active	Not Active	Not Active	Not Active	Not Active
CN(Cc1ccc(C(C)(C)C)cc1)Cc1cccc2ccccc12 [BUTENAFINE]	3.91 µM	3.88 µM	Not Active	Not Active	Not Active	Not Active	Not Active	Not Active	
N=C(N)NCCN1CCCCCCC1 [GUANETHIDINE]			Not Active	Not Active	Not Active	Not Active	Not Active	Not Active	Not Active
C[C@H]1O[C@@H](O[C@H]2[C@@H](O)C[C@H](O[C@H]3[C@@H](O)C[C@H](O[C@H]4CC[C@@]5(C)[C@H](CC[C@@H]6[C@@H]5C[C@@H](O)[C@]5(C)[C@@H](C7=CC(=O)OC7)CC[C@]65O)C4)O[C@@H]3C)O[C@@H]2C)C[C@H](O)[C@@H]1O [DIGOXIN]			Not Active	Not Active	Not Active	Not Active	Not Active	Not Active	Not Active
CCCCc1nc(Cl)c(CO)n1Cc1ccc(-c2ccccc2-c2nnn[nH]2)cc1 [LOSARTAN]			Not Active	Not Active	Not Active	Not Active	Not Active	Not Active	Not Active
Nc1c(Br)cc(Br)cc1CN[C@H]1CC[C@H](O)CC1 [AMBROXOL]			Not Active	Not Active	Not Active	Not Active	Not Active	Not Active	Not Active
CNCCc1ccccn1 [BETAHISTINE]			Not Active	Not Active	Not Active	Not Active	Not Active	Not Active	Not Active
O=C(O)CCCc1ccc(N(CCCl)CCCl)cc1 [CHLORAMBUCIL]			Not Active	Not Active	Not Active	Not Active	Not Active	Not Active	Not Active
NC(=O)N1c2ccccc2CCc2ccccc21			Not Active	Not Active	Not Active	Not Active	Not Active	Not Active	Not Active
NCCCCCC(=O)O [AMINOCAPROIC ACID]			Not Active	Not Active	Not Active	Not Active	Not Active	Not Active	Not Active
C=C(C)C1(O)OC(=O)C=C1OC (stereo not given) [PENICILLIC ACID]			Not Active	Not Active	Not Active	Not Active	Not Active	Not Active	Not Active
CC1(C)O[C@@H]2C[C@H]3[C@@H]4CCC5=CC(=O)CC[C@]5(C)[C@@]4(F)[C@@H](O)C[C@]3(C)[C@]2(C(=O)CCl)O1 [HALCINONIDE]			Not Active	Not Active	Not Active	Not Active	Not Active	Not Active	Not Active
